Reference: patent EP1388586A2, “Identification of broadly reactive DR restricted epitopes” (priority 1998, dated 1999)
Read-outs that look alike come from different tables or passages of the source. Square brackets hold non-standard residues; d marks the D form. Ends that are not written are not given here. Peptide text beside a SMILES is read from it.

Columns and labels:
[1] = molecular target: T1, DRB5*0101 (DR2w2a) (Homo sapiens, UniProt P01903+Q30154); assay: Class II peptide-binding assay, DR2w2a (DR2w2B2);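 note: competitive binding assay: unlabeled peptide inhibiting binding of a radiolabeled probe peptide to purified DR molecules at pH 7.0, IC50 approximating Kd, lower means stronger binding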
T1 construct: used as sources of human HLA class II molecules; endogenous in cells; host or cells: GM3107 (EBV-transformed homozygous B cell line)

[2] = molecular target: T2, DRB1*0401 (DR4w4) (Homo sapiens, UniProt P01903+P01911, A100K/A169T/F76Y/I96L/K127E/L162R/M171V/N62H/P40V/Q125Y/R42H/S133A/S149N/S66Y/V115G/V209L/W38E); assay: Class II peptide-binding assay, DR4w4;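 note: unlabeled test peptides compete with a radiolabeled probe peptide for binding to affinity-purified HLA-DR, with DR amount titrated to capture a small fraction of label, IC50 approximating Kd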
T2 construct: used as sources of human HLA class II molecules; endogenous in cells; host or cells: PREISS (EBV-transformed homozygous B cell line)

[3] = molecular target: T3, DRB10404 (DR4w14) (Homo sapiens, UniProt P01903+P01911, A100R/A169T/F76Y/I96L/K127E/L162R/M171V/N62H/P40V/Q125Y/R42H/S133A/S149N/S66Y/V209L/W38E); assay: Class II peptide-binding assay, DR4w14;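 note: unlabeled peptides compete with a radiolabeled probe for binding to affinity-purified HLA-DR, neutral pH, class II amount titrated to bind a small fraction of label, IC50 approximates Kd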
T3 construct: used as sources of human HLA class II molecules; endogenous in cells; host or cells: BIN40 (EBV-transformed homozygous B cell line)

[4] = molecular target: T4, DRB1*0101 (DR1) (Homo sapiens, UniProt P01903+P01911, A100R/D57E/F55L/F60I/F76Y/I96L/L162R/M171V/P40L/Q125E/R42F/V115G/Y59C); assay: Class II peptide-binding assay, DR1;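 note: competition assay: unlabeled test peptides inhibit binding of a radiolabeled probe peptide to purified DR, with half-maximal inhibition taken as an approximate dissociation constant Kd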
T4 construct: used as sources of human HLA class II molecules; endogenous in cells; host or cells: LG2 (EBV-transformed homozygous B cell line)

[5] = molecular target: DRB1*0701 (DR7) (Homo sapiens, UniProt P01903+P01911, A100R/A102G/A103Q/D57E/D86V/E43K/F76Y/K127E/L162R/M171V/P40G/Q125H/Q99D/R33Q/R42Y/R54Q/S133A/S66F/T210M/V115G/Y107V/Y59L/Y89S); assay: Class II peptide-binding assay, DR7;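 note: unlabeled peptides compete with an iodinated probe peptide for binding to affinity-purified HLA-DR at neutral pH, DR amount titered to bind a small tracer fraction, IC50 approximating Kd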
[6] = molecular target: T5, DRB1*1101 (DR5w11) (Homo sapiens, UniProt P01903+P01911, A100R/A169T/A87E/I96F/K41T/L162R/M171V/P40S/Q125H/Q178H/Q39Y/Q99D/R42S/S66Y/T262R/V115G/W38E); assay: Class II peptide-binding assay, DR5w11;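 note: competition by unlabeled test peptide against iodinated probe peptide binding to affinity-purified HLA-DR, class II amount titrated beforehand, half-maximal inhibitory concentration read as approximate Kd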
T5 construct: used as sources of human HLA class II molecules; endogenous in cells; host or cells: SWEIG (EBV-transformed homozygous B cell line)
T5 sequence (P01903 26-254, other chains not shown): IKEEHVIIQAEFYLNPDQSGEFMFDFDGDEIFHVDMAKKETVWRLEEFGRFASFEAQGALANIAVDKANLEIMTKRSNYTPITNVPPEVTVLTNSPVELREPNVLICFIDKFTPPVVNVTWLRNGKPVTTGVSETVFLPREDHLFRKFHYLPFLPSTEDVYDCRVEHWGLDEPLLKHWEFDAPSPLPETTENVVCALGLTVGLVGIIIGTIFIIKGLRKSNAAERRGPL
Protocol: (§1) Class II peptide-binding assays. […] These assays were chosen as to be representative of the most common DR alleles.
Radiolabeled peptides were iodinated using the chloramine-T method. […] In appropriate stoichiometric conditions, the IC50 of an unlabeled test peptide to the purified DR is a reasonable approximation of the affinity of interaction (Kd). Peptides were tested in two to four completely independent experiments. […] Final detergent concentration in the incubation mixture was 0.05% Nonidet P-40. Assays were performed at pH 7.0 with the exception of DR3, which was performed at pH 4.5, and DRw53, which was performed at pH 5.0.
(§2) All subsequent inhibition and direct binding assays were the performed using these class II concentrations.

[7] = molecular target: T6, DRB1*0301 (DR3w17) (Homo sapiens, UniProt P01903+P01911, A100K/A102G/A103R/A169T/F55Y/I96L/K41T/L162R/M171V/P40S/Q125H/Q178H/Q39Y/R42S/S66N/T106N/T262R/W38E/Y61H); assay: Class II peptide-binding assay, DR3 (pH 4.5);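 note: unlabeled peptide competing with a radiolabeled probe peptide for binding to affinity-purified HLA-DR3, IC50 regarded as an approximation of Kd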
T6 construct: used as sources of human HLA class II molecules; endogenous in cells; host or cells: MAT (EBV-transformed homozygous B cell line)
T6 sequence (P01903 26-254, other chains not shown): as above
Protocol: as §1
In appropriate stoichiometric conditions, the IC50 of an unlabeled test peptide to the purified DR is a reasonable approximation of the affinity of interaction (Kd). Peptides were tested in two to four completely independent experiments. […] Final detergent concentration in the incubation mixture was 0.05% Nonidet P-40. Assays were performed at pH 7.0 with the exception of DR3, which was performed at pH 4.5, and DRw53, which was performed at pH 5.0.
as §2

[8] = read-out: In IC50 Format DR2w2β2, Table VIII
[9] = read-out: In IC50 Format DR4w4, Table VIII
[10] = read-out: In IC50 Format DR4w14, Table VIII
[11] = read-out: In IC50 Format DR1, Table VIII
[12] = read-out: In IC50 Format DR7, Table VIII
[13] = read-out: In IC50 Format DR5w11, Table VIII
[14] = read-out: In IC50 Format DR3, Table VIII
[15] = read-out: DR2w2B2 nM (In IC50 Format), purified HLA DR2w2β2
[16] = read-out: DR4w4 nM (In IC50 Format), purified HLA DR4w4
[17] = read-out: DR4w14 nM (In IC50 Format), purified HLA DR4w14
[18] = read-out: DR1 nM (In IC50 Format), purified HLA DR1
[19] = read-out: DR7 nM (In IC50 Format), purified HLA DR7
[20] = read-out: DR5w11 nM (In IC50 Format), purified HLA DR5w11
[21] = read-out: DR3 nM (In IC50 Format), purified HLA DR3

Row | Molecule | IC50 [1, 8] | IC50 [2, 9] | IC50 [4, 11] | IC50 [5, 12] | IC50 [6, 13] | IC50 [7, 14] | IC50 [1, 15] | IC50 [2, 16] | IC50 [3, 17] | IC50 [4, 18] | IC50 [5, 19] | IC50 [6, 20] | IC50 [7, 21] | also measured
1 | DVFKELKVHHANENI [Peptide 519.00] | 0.571 µM | 40.9 nM | 9.6 nM | 463 nM | 118 nM | 150 µM | – | – | – | – | – | – | – | IC50 [3, 10]: 250 nM
2 | KIAKMEKASSVFNVVNS [Peptide 526.01] | 3.33 µM | 187 nM | 35.7 nM | > 1250 nM | 64.5 nM | 130 µM | – | – | – | – | – | – | – | IC50 [3, 10]: 1280 nM
3 | KYLEFISEAIIHVLHSR [Peptide 508.01] | 20 µM | 136 nM | 294 nM | 338 nM | 4000 nM | 25 µM | – | – | – | – | – | – | – | IC50 [3, 10]: 2500 nM
4 | YASFVSQTAQRLFY-NH2 [Peptide 717.03] | – | – | – | – | – | – | 0.008 µM | 11 nM | 6250 nM | 1.9 nM | 25 nM | 2500 nM | 15.8 µM | –
5 | VHHANENIFYCPIAIMSALA [Peptide 703.03] | > 10 µM | 63.3 nM | 147 nM | > 6250 nM | 1110 nM | 42.9 µM | – | – | – | – | – | – | – | IC50 [3, 10]: 333 nM
6 | CC[C@H](C)[C@H](NC(=O)[C@H](CO)NC(=O)[C@H](CCC(=O)O)NC(=O)[C@H](CC(C)C)NC(=O)[C@H](C)NC(=O)[C@@H](N)CC(=O)O)C(=O)N[C@@H](CCSC)C(=O)N[C@H](C(=O)N[C@H](C(=O)N[C@@H](CCCCN)C(=O)N[C@@H](CO)C(=O)N[C@H](C(=O)N[C@@H](CO)C(=O)N[C@@H](Cc1ccccc1)C(=O)N[C@@H](CCCNC(=N)N)C(=O)O)C(C)C)[C@@H](C)O)[C@@H](C)O [Peptide 774.00] | – | – | – | – | – | – | – | – | – | – | – | – | – | IC50 ([1]; purified HLA DR2w2β2, read-out: DR2w2B2 nM (In IC50 Format)): 20 µM; IC50 ([2]; purified HLA DR4w4, read-out: DR4w4 nM (In IC50 Format)): 110 nM; IC50 ([4]; purified HLA DR1, read-out: DR1 nM (In IC50 Format)): 385 nM; IC50 ([5]; purified HLA DR7, read-out: DR7 nM (In IC50 Format)): 84.1 nM; IC50 ([7]; purified HLA DR3, read-out: DR3 nM (In IC50 Format)): 33.3 µM
7 | CC(C)C[C@H](NC(=O)[C@@H](NC(=O)[C@H](C)NC(=O)[C@H](C)NC(=O)[C@H](C)NC(=O)[C@H](CCCCN)NC(=O)[C@H](Cc1ccccc1)NC(=O)[C@H](C)NC(=O)[C@@H](C)N)[C@@H](C)O)C(=O)N[C@@H](CCCCN)C(=O)N[C@@H](C)C(=O)N[C@@H](C)C(=O)N[C@H](C)C(N)=O [Peptide 871.08] (H-[dA]AFKAAATLKAA[dA]-NH2) | – | – | – | – | – | – | – | – | – | – | – | – | – | IC50 ([1]; read-out: DR2w2B2 nM, Table VIII, In IC50 Format): 0.0039 µM; IC50 ([2]; read-out: DR4w4 nM, Table VIII, In IC50 Format): 1.9 nM; IC50 ([3]; read-out: DR4w14 nM, Table VIII, In IC50 Format): 10 nM; IC50 ([4]; read-out: DR1 nM, Table VIII, In IC50 Format): 1.8 nM; IC50 ([5]; read-out: DR7 nM, Table VIII, In IC50 Format): 111 nM; IC50 ([6]; read-out: DR5w11 nM, Table VIII, In IC50 Format): 9 nM; IC50 ([7]; read-out: DR3 nM, Table VIII, In IC50 Format): 15 µM
8 | RLANSLVHSSNNFGAILSS [Peptide 735.03] | – | – | – | – | – | – | 10 µM | 11 nM | 12.8 nM | 84.7 nM | 556 nM | 202 nM | 25 µM | –
9 | CC[C@H](C)[C@H](NC(=O)[C@@H](NC(=O)[C@@H](NC(=O)[C@H](CCC(=O)O)NC(=O)[C@H](CCCNC(=N)N)NC(=O)CN)[C@@H](C)O)C(C)C)C(=O)N[C@@H](CCC(=O)O)C(=O)N[C@@H](Cc1ccc(O)cc1)C(=O)N[C@@H](CC(C)C)C(=O)N[C@H](C(=O)N[C@@H](CO)C(=O)N[C@@H](Cc1ccccc1)C(=O)NCC(=O)N[C@H](C(=O)N[C@@H](Cc1c[nH]c2ccccc12)C(=O)O)C(C)C)C(C)C [Peptide 802.04] | – | – | – | – | – | – | 1.33 µM | 833 nM | 32.3 nM | 12.8 nM | 67.6 nM | 1540 nM | 16.7 µM | –
10 | FFKNIVTPRFFKNIVTPR [Peptide 613.03] | 0.188 µM | 4500 nM | 200 nM | 272 nM | 1670 nM | 75 µM | – | – | – | – | – | – | – | IC50 [3, 10]: 2000 nM
11 | TSATQRLANSLVHSSNNFG [Peptide 735.02] | – | – | – | – | – | – | 10 µM | 5.4 nM | 13.2 nM | 111 nM | 373 nM | 130 nM | 33.3 µM | –
12 | LVHSSNNFGAILSSTNVGS [Peptide 735.04] | – | – | – | – | – | – | 5 µM | 11 nM | 12.5 nM | 161 nM | 961 nM | 1250 nM | 15.8 µM | –
13 | CSCC[C@H](NC(=O)[C@H](CC(C)C)NC(=O)[C@H](CCC(=O)O)NC(=O)CNC(=O)[C@H](Cc1c[nH]c2ccccc12)NC(=O)[C@@H](N)CS)C(=O)N[C@H](C(=O)N[C@@H](CC(C)C)C(=O)N[C@@H](C)C(=O)N[C@H](C(=O)N[C@@H](Cc1c[nH]c2ccccc12)C(=O)N[C@H](C(=O)NCC(=O)N[C@H](C(=O)N[C@@H](CC(N)=O)C(=O)N[C@@H](CC(C)C)C(=O)N[C@@H](CCC(=O)O)C(=O)N[C@@H](CC(=O)O)C(=O)O)C(C)C)C(C)C)[C@@H](C)O)[C@@H](C)O [Peptide 802.02] | – | – | – | – | – | – | – | 738 nM | 90.7 nM | 357 nM | 6250 nM | 5000 nM | 100 µM | –
14 | CSCC[C@H](N)C(=O)NCC(=O)N[C@@H](CCC(N)=O)C(=O)N[C@@H](CC(N)=O)C(=O)N[C@@H](CC(C)C)C(=O)N[C@@H](CO)C(=O)N[C@H](C(=O)N[C@@H](CO)C(=O)N[C@@H](CC(N)=O)C(=O)N1CCC[C@H]1C(=O)N[C@@H](CC(C)C)C(=O)NCC(=O)N[C@@H](Cc1ccccc1)C(=O)N[C@@H](Cc1ccccc1)C(=O)N1CCC[C@H]1C(=O)N[C@@H](CC(=O)O)C(=O)N[C@@H](Cc1c[nH]cn1)C(=O)O)[C@@H](C)O [Peptide 800.01] | – | – | – | – | – | – | – | 68.8 nM | 2000 nM | 94.3 nM | 154 nM | 2000 nM | 6.82 µM | –
15 | CC[C@H](C)[C@H](NC(=O)[C@H](CC(N)=O)NC(=O)[C@H](CCCCN)NC(=O)[C@H](Cc1ccccc1)NC(=O)[C@H](Cc1ccccc1)NC(=O)[C@H](Cc1c[nH]cn1)NC(=O)[C@@H](NC(=O)[C@@H](NC(=O)[C@@H]1CCCN1C(=O)[C@H](CC(N)=O)NC(=O)[C@H](CCC(=O)O)NC(=O)[C@H](CC(=O)O)NC(=O)[C@H](CCC(N)=O)NC(=O)[C@@H](NC(=O)[C@H](CCCNC(=N)N)NC(=O)CN)[C@@H](C)O)C(C)C)C(C)C)C(=O)N[C@H](C(=O)N[C@H](C(=O)N1CCC[C@H]1C(=O)N[C@@H](CCCNC(=N)N)C(=O)O)[C@@H](C)O)C(C)C [Peptide 507.02] | 0.25 µM | 5.8 nM | 17.2 nM | 1000 nM | 133 nM | 60 µM | – | – | – | – | – | – | – | –
16 | CC[C@H](C)[C@H](NC(=O)[C@H](CCCNC(=N)N)NC(=O)[C@H](CO)NC(=O)[C@H](Cc1ccccc1)NC(=O)[C@@H](NC(=O)[C@H](CO)NC(=O)[C@H](CO)NC(=O)[C@H](CC(C)C)NC(=O)[C@@H]1CCCN1C(=O)[C@H](CO)NC(=O)[C@H](C)NC(=O)[C@@H](NC(=O)[C@@H](NC(=O)[C@H](CC(C)C)NC(=O)[C@@H](NC(=O)[C@@H]1CCCN1C(=O)[C@@H](N)CC(N)=O)C(C)C)[C@@H](C)O)[C@@H](C)O)[C@@H](C)CC)C(=O)O [Peptide 801.02] | – | – | – | – | – | – | 20 µM | 54.1 nM | 6.5 nM | 714 nM | 63.1 nM | – | 300 µM | –
17 | YAEFQAEKTLKAAS-NH2 [Peptide 717.05] | – | – | – | – | – | – | 0.339 µM | 6.4 nM | 29.4 nM | 8.2 nM | – | 48.8 nM | 4 µM | –
